Data: patent US20260306633A1, “A COMBINATION THERAPY FOR CANCER TREATMENT” (Purdue Research Foundation, priority 2023, published 2026)

Experiments:
Type in all cases: cell-based, human
[1] = test system: TNBC BT-549 cells; experiment: Cell survival / cell inhibition (MTT cell cytotoxicity assay) after 24 h treatment with photosensitizer and/or chemotherapeutic agent, dark or light-irradiated; settings: for cell inhibition (%), combination with cisplatin / cell inhibition (%), combination with doxorubicin / cell inhibition (%), combination with fluorouracil / cell inhibition (%), combination with methotrexate / cell inhibition (%), combination with paclitaxel / cell survival, co-treatment with fluorouracil in the dark / cell survival, co-treatment with paclitaxel in the dark: 24 h; for cell inhibition (%), combination with cisplatin / cell inhibition (%), combination with doxorubicin / cell inhibition (%), combination with fluorouracil / cell inhibition (%), combination with methotrexate / cell inhibition (%), combination with paclitaxel: light 0.96 J cm−2; for cell inhibition (%), combination with doxorubicin: PS 100 nM + doxorubicin 500 nM; for cell inhibition (%), combination with fluorouracil / cell survival, co-treatment with fluorouracil in the dark: PS 100 nM + fluorouracil 25 μM; for cell inhibition (%), combination with methotrexate: PS 100 nM + methotrexate 500 nM; for cell inhibition (%), combination with paclitaxel / cell survival, co-treatment with paclitaxel in the dark: PS 100 nM + paclitaxel 50 nM; for cytotoxicity in the absence of light, PS alone: PS 500 nM; for cytotoxicity in the absence of light, PS alone / cell survival, co-treatment with fluorouracil in the dark / cell survival, co-treatment with paclitaxel in the dark: dark
Procedure: Human mammary epithelial carcinoma cell lines purchased from the American Type Culture Collection BT-549 (ATCC HTB-122) were cultured according to ATCC protocol. BT-549 cells were grown in RPMI 1640 containing 0.023 IU/mL insulin and supplemented with 10% fetal bovine serum (FBS). Cells were grown to 80-90% confluence in 75-cm^2 culture flasks (Corning) for 4-5 days in a humidified incubator (Fisher Scientific Isotemp) with 5% CO2 at 37° C. During the incubation period, growth media was changed once with fresh pre-warmed media (pH 7.2). To harvest the cells, old growth media was aspirated out, and 3 mL 0.25% trypsin solution (Thermo Sci Hyclone) were added. The cells were incubated for 5 minutes, and the cell pellet after centrifugation was resuspended in 3 mL media, broken up gently, then 1 mL of suspended cells was transferred into a new T75 cell culture flask containing pre-warmed media (20 mL) for further culturing.
(§1) Cells were grown to confluence in a 96-well plate (9×10^3 cells/well) and co-treated for 24 hours with synthesized photosensitizers (PSs) and chemotherapeutic agents of varying concentrations ranging from 5 nM to 50 μM) in growth media from a stock solution of 10 mM in DMSO (dimethyl sulfoxide, Fisher). After 24-hour treatment, old growth media containing the PSs or compounds were aspirated out and replaced with fresh media. Plates were then positioned below a non-coherent LumaCare LC-122 650 nm light source for 1 minute at an energy fluence rate of 0.96 J/cm^2 and a power of 16 mW/cm^2 (measured using a Newport optical power meter Model 840). Unirradiated cells served as control samples. The following day, cells were washed with pre-warmed PBS, and 11MTT (3-[4,5-dimethyl-thiazol-2-yl]-2.5-diphenyltetrazolium bromide, Sigma, 0.3 mg/mL) in PBS was added to each well. Samples were allowed to incubate for additional 2 hours, after which dark blue crystals formed. DMSO was added to each well and plates were shaken at room temperature for 1 hour to dissolve the purplish-blue formazan crystals. Absorbance values at 570 nm were measured on a microplate reader (BioRad 550). Cell survival was calculated based on the absorbance of the untreated cells alone (as control) and were directly proportional to the number of viable cells in culture. Results were reported as the mean±SD of triplicate measurements.
The unmetallated PS and the indium complexes were used.
Light dose corresponds to an energy fluence rate of 0.96 J/cm^2 used.
Power of 16 mW/cm^2 used.
Cell inhibition in TNBC cells is based on the cell survival (MTT) assay of the binary therapy, blending the effect of PDT and chemotherapeutic agents. […] MePheo serves as a control compound. TNBC cells were then exposed to light after binary treatment for 24 hours.

[2] = test system: TNBC cells; experiment: Combination index (CI) of binary therapy, Chou-Talalay method, CompuSyn software
Procedure: (§2) The calculated CI values are based on 50 nM concentration for the PSs, 50 nM paclitaxel, 500 nM doxorubicin, 25 μM cisplatin, 25 μM fluorouracil, and 500 nM methotrexate.
as §1
The combination index (CI) for the binary treatment of TNBC cells with a PS and a chemotherapeutic drug was calculated based on the Chou-Talalay method using CompuSyn software. […] The unified dynamics algorithm uses a minimum of dose-data points to fit the general MAL theory.
as §2

[3] = test system: TNBC cells; experiment: as above; settings: PS 50 nM + methotrexate 500 μM (footnote 500 nM)
[4] = PS 100 nM + cisplatin 25 μM, light

Row | Structure (SMILES) | cell inhibition (%), combination with cisplatin ([1]; PS 100 nM + cisplatin 25 μM) [%] | cell inhibition (%), combination with doxorubicin [1] [%] | cell inhibition (%), combination with fluorouracil [1] [%] | cell inhibition (%), combination with methotrexate [1] [%] | cell inhibition (%), combination with paclitaxel [1] [%] | cytotoxicity in the absence of light, PS alone [1] | effect of added cisplatin compared to cisplatin-treated cell viability [1, 4] | cell survival, co-treatment with fluorouracil in the dark [1] [%] | cell survival, co-treatment with paclitaxel in the dark [1] [%] | other results
1 | C=Cc1c(C)c2cc3nc(c(CC(=O)OC)c4[nH]c(cc5nc(cc1[nH]2)C(C)=C5CC)c(C)c4C(=O)NCCCCCCNC(=O)c1ccc(C(=C)c2cc4c(cc2C)C(C)(C)CCC4(C)C)cc1)[C@@H](CCC(=O)OC)[C@@H]3C [CBX, chlorin bexarotene conjugate] | 0 | 30 | 6 | 42 | 48 | No cytotoxicity |  |  |  | 
2 | C=Cc1c(C)c2cc3nc(c(CC(=O)OC)c4[nH]c(cc5nc(cc1[nH]2)C(C)=C5CC)c(C)c4C(=O)NCCCCCCNC(=O)CCCC[C@@H]1CCSS1)[C@@H](CCC(=O)OC)[C@@H]3C [CLA, chlorin lipoic acid conjugate] | 65 | 33 | 35 | 43 | 45 | No cytotoxicity | reduced cell survival | 84 | 59 | cell survival, co-treatment with cisplatin upon light ([1]; PS 100 nM + cisplatin 25 μM, light, 1440 min): 35%; cell survival, PS alone ([1]; PS 100 nM, light 0.96 J/cm^2, 1440 min): 90%; combination therapy vs monotherapy (cisplatin) ([1]; PS + cisplatin, light): better photodynamic effect when co-treated with cisplatin than PS-treatment alone
3 | C=Cc1c(C)c2cc3nc(c4c5[nH]c(cc6nc(cc1[nH]2)C(C)=C6CC)c(C)c5C(=O)[C@@H]4C(=O)OC)[C@@H](CCC(=O)OC)[C@@H]3C [MePheo, methyl pheophorbide, reference compound] | 39 | 36 | 34 | 40 | 55 | No cytotoxicity | reduced cell survival | 61 | 46 | cell viability reduction (difference) vs PS alone ([1]; PS at lower concentration (CPA: 50 nM) + methotrexate 500 nM, light): 10%; combination index (CI) with cisplatin ([2]; PS 50 nM + cisplatin 25 μM): 6.10; synergism vs additive vs antagonism effect with cisplatin ([2]; PS 50 nM + cisplatin 25 μM): (SA) (SA (3.3-10), strong antagonism); combination index (CI) with doxorubicin ([2]; PS 50 nM + doxorubicin 500 nM): 6.37; synergism vs additive vs antagonism effect with doxorubicin ([2]; PS 50 nM + doxorubicin 500 nM): (SA) (SA (3.3-10), strong antagonism); combination index (CI) with fluorouracil ([2]; PS 50 nM + fluorouracil 25 μM): 17.96; synergism vs additive vs antagonism effect with fluorouracil ([2]; PS 50 nM + fluorouracil 25 μM): (VSA) (VSA (>10), very strong antagonism); combination index (CI) with paclitaxel ([2]; PS 50 nM + paclitaxel 50 nM): 13.27; synergism vs additive vs antagonism effect with paclitaxel ([2]; PS 50 nM + paclitaxel 50 nM): (VSA) (VSA (>10), very strong antagonism); combination index (CI) with methotrexate [3]: 7.79; synergism vs additive vs antagonism effect with methotrexate [3]: (SA) (SA (3.3-10), strong antagonism)
